Data taken from patent publication US8961959B2, “Glucosylceramide synthase inhibitors and therapeutic methods using the same” (The Regents of the University of Michigan, priority 2011, dated 2015).
Like-named read-outs stand apart in the source and are kept apart here.

Legend:
WT-MDCKII cells = assay: GCS inhibition (GlcCer production) in whole wild-type MDCKII cells; assay type: cell-based, canine; settings: for IC50: Canis lupus familiaris, MDCK-II, 24 h
Procedure: Parental (WT-)MDCKII cells and MDCKII cells retrovirally transduced with human MDR-1 cDNA were obtained from the Netherlands Cancer Institute. Both cell lines were routinely maintained in medium consisting of Opti-MEM/F 12 (1:1), 5% FBS, 100 U/mL of penicillin, 100 μg/mL streptomycin and […] L-glutamine. MDCKII cells were newly thawed from frozen ampules every two months. Protein levels of MDR1 in MDR1-MDCKII cells were measured monthly, and MDR1-MDCKII cell passages were immediately terminated when a reduction of MDR1 levels was observed by Western blot using anti-human MDR1 monoclonal antibody (Abcam C219).
(§1) Stock solutions of water-insoluble glycosphingolipid inhibitors (100 mM) were prepared by dissolving each inhibitor into 100% ethanol as previously described (3). The inhibitor-ethanol solutions then were diluted 50× into 2 mM delipidated bovine serum albumin-phosphate buffered saline solution to make water-soluble glycosphingolipid inhibitor-bovine serum albumin complexes. The inhibitor-bovine serum album complexes were sterile-filtered and stored at −20° C. Prior to use, portions of the inhibitor-bovine serum albumin complexes were further diluted with Opti-F12 to make treatment solutions. Equal amounts of bovine serum albumin and ethanol were added into the control cultures. WT and MDR1-MDCKII cells (5×10^5) were seeded into 10-cm culture dishes containing 10 ml of Opti-F12 with 5% FBS. After 24 hours, the medium was replaced with fresh serum-free Opti-F12 medium, and cells were exposed to candidate GCS inhibitors at concentrations of 0, 1, 3, 10, 30, 100 and 300 nM for 24 hours.
(§2) Following inhibitor treatment, whole cellular lipids of wild type and MDR1-MDCKII cells were extracted as previously described in detail (10). Briefly, cells were washed with ice-cold phosphate buffered saline, fixed by methanol, and collected with rubber scraper. Chloroform was then added to yield a theoretical ratio of chloroform:methanol:water at 1:2:0.8 (v/v/v) to form a mono-phase. Cell debris and proteins were removed by centrifugation at 2200×g for 30 min. The supernatants were portioned by adding chloroform and 0.9% NaCl. The lower organic phases containing neutral glycosphingolipids lipids were washed with methanol and 0.9% NaCl, and subjected to base- and acid-hydrolysis (10). A portion of purified glycosphingolipids normalized to 100 nmol of total phospholipids was analyzed by high performance thin layer chromatography. The thin layer chromatography separations were processed twice. The plate pretreated with 1% sodium borate was first developed in a solvent system consisting of chloroform/methanol (98/2, v/v). After air drying, the plate was then developed in a solvent system containing chloroform/methanol/water (70/30/4, v/v/v). The levels of glucosylceramide were detected by charring with 8% cupric sulfate in 8% phosphoric acid, and quantified by densitometric scanning using ImageJ, NIH Image. Image data was analyzed, and the IC50 of each inhibitor was calculated using GraphPad Prism (version 5.03).

MDR1-MDCKII cells = assay: GCS inhibition (GlcCer production) in MDCKII cells stably expressing human MDR1; assay type: cell-based, canine; settings: for IC50: Canis lupus familiaris
Procedure: Parental (WT-)MDCKII cells and MDCKII cells retrovirally transduced with human MDR-1 cDNA were obtained from the Netherlands Cancer Institute. Both cell lines were routinely maintained in medium consisting of Opti-MEM/F 12 (1:1), 5% FBS, 100 U/mL of penicillin, 100 μg/mL streptomycin and […] L-glutamine. MDCKII cells were newly thawed from frozen ampules every two months.
as §1, with “After 24 hours, the medium was replaced with fresh serum-free Opti-F12 medium, and cells were exposed to candidate GCS inhibitors at concentrations of 0, 1, 3, 10, 30, 100 and 300 nM for 24 hours.” left out
as §2, with “Image.” for “Image. Image data was analyzed, and the IC50 of each inhibitor was calculated using GraphPad Prism (version 5.03).”

[1] = inhibition of GlcCer production in whole wild-type MDCKII cells, read-out: WT-MDCK IC50

| Structure (SMILES) | IC50 (WT-MDCKII cells; WT-MDCKII cells, read-out: IC50 for reduction in GlcCer levels, WT cells) [nM] | IC50 (WT-MDCKII cells; [1]) [nM] | potency in whole cells versus broken cells (WT-MDCKII cells; broken cell IC50 versus whole WT-MDCKII IC50) [fold] | IC50 (MDR1-MDCKII cells; MDR1-MDCKII cells, 24 h, read-out: IC50 for reduction in GlcCer levels, MDR1 expressing cells) [nM] | MDR/WT (MDR1-MDCKII cells; ratio of MDR1-MDCKII IC50 divided by WT-MDCKII IC50) | IC50 (MDR1-MDCKII cells; inhibition of GlcCer production in MDCKII cells stably expressing human MDR1, 24 h, read-out: MDR-MDCK IC50) [nM] |
| --- | --- | --- | --- | --- | --- | --- |
| CCCCCCCC(=O)N[C@H](CN1CCCC1)[C@H](O)c1ccc2c(c1)OCCO2 [Compound 3a, N-((1R,2R)-1-(2,3-dihydrobenzo-[b][1,4]dioxin-6-yl)-1-hydroxy-3-(pyrrolidin-1-yl)propan-2-yl)octanamide, reference compound] | 13.7 | 13.7 | ~10 | 31.7 | 2.3 |  |
| O=C(CC1Cc2ccccc2C1)N[C@H](CN1CCCC1)[C@H](O)c1ccc2c(c1)OCCO2 [Compound 3h, 2-(2,3-dihydro-1H-inden-2-yl)-N-((1R,2R)-1-(2,3-dihydrobenzo[b][1,4]dioxin-6-yl)-1-hydroxy-3-(pyrrolidin-1-yl)propan-2-yl)acetamide] |  | 15.3 |  |  |  | 24.3 |
